Test results: patent US6514507B2, “Hydroxydecenoic acid compounds for promoting desquamation/epidermal renewal of the skin and/or combating skin aging” (Societe L'Oreal S.A., priority 1998, dated 2003)

Test system: differentiated human keratinocytes
Experiment: in vitro screening of desquamating activity (release of corneocytes, cellular detachment index, flow cytometer)
Assay type: cell-based
Settings: for % of activity with respect to the control composed of an identical culture in the absence of compound (cellular detachment index): compounds at 5 × 10^−5 M, difference between T60 and T0 (60 minutes after addition), corneocytes counted by flow cytometer
Procedure: This test of in vitro screening of an agent which is active with regard to desquamation was carried out on differentiated human keratinocytes. The principle of the test is based on the fact that desquamation induces the release of corneocytes. The desquamating power of the test product increases as the number of corneocytes released increases.
The protocol of the test was as follows: starting with biopsies of human skin, the keratinocytes obtained by separation from the epidermis were dissociated by enzymatic action with trypsin and were cultured at a concentration of 2×10^5 cell/ml. The growth and differentiation of the keratinocytes was obtained by culturing for 10 to 20 days in a specific medium. The activity of the test product was then evaluated after removal of the culture medium. To do this, two samples were taken at T0 and T60, that namely, before the addition of the product and 60 minutes after this addition. The samples thus taken were analyzed with a flow cytometer in order to count the population of corneocytes. The flow cytometer made it possible to distinguish the populations of corneocytes and of keratinocytes by treatment with acridine orange, which is specific for cellular DNA.
The cellular detachment index was determined by the difference between T60 and T0. The same measurement was carried out for a control not comprising test product, because the experiment inevitably produced the release of corneocytes, even in the absence of active principles.
The test was carried out with 10-hydroxy-2-decenoic acid at a concentration of 5×10^−5M.

| SMILES | % of activity with respect to the control composed of an identical culture in the absence of compound (cellular detachment index) [%] | activity with regard to cellular detachment (5 × 10^−5 M, differentiated human keratinocytes) |
| --- | --- | --- |
| CCCCCCCC(=O)c1ccc(O)c(C(=O)O)c1 [Reference, 2-Hydroxy-5-octanoylbenzoic acid, reference compound] | 92 |  |
| O=C(O)C=CCCCCCCCO [10-Hydroxy-2-decenoic acid] | 110 | high |
